The values below are quoted from earlier work in patent US9156879B1, “Chromatography media” (Merck Sharp & Dohme Corp., priority 2010, dated 2015).

The conditions of the data set: critical micelle concentration of detergent.
Take `CCCCCCCCCCCCOCCOCCOCCOCCOCCOCCOCCOCCO` [C12E8]: the “CMC % (w/v)” value is given as 0.005 % (w/v).
As to `CCCCCCCCCCCCCCCC[N+](C)(C)C.[Br-]` [C16TAB], the “CMC % (w/v)” value is 0.04 % (w/v).
As to `C[C@H](CCC(=O)NCCC[N+](C)(C)CCCS(=O)(=O)[O-])[C@H]1CC[C@H]2[C@@H]3[C@H](O)C[C@@H]4C[C@H](O)CC[C@]4(C)[C@H]3C[C@H](O)[C@]12C` [CHAPS, 3[(3-cholamidopropyl)dimethylammonio]-1-propanesulfonate], the “CMC % (w/v)” value is on record as 0.49 % (w/v).
For `C[C@H](CCC(=O)O)[C@H]1CC[C@H]2[C@@H]3[C@H](O)C[C@@H]4C[C@H](O)CC[C@]4(C)[C@H]3C[C@H](O)[C@]12C` [Cholate], the “CMC % (w/v)” value was 0.60 % (w/v).
`CCCCCCCCO[C@@H]1O[C@H](CO)[C@@H](O)[C@H](O)[C@H]1O` [Octylglucoside]: the “CMC % (w/v)” value is 0.73 % (w/v).
As to `CCCCCCCCCCCCOS(=O)(=O)[O-].[Na+]` [SDS, sodium dodecyl sulfate], the “CMC % (w/v)” value is listed as 0.23 % (w/v).
In the case of `CCCCCCCC/C=C\CCCCCCCC(=O)OCCOCC(OCCO)C1OCC(OCCO)C1OCCO` (stereo not drawn) [Tween 80], the “CMC % (w/v)” value was 0.002 % (w/v).
In the case of `CCCCCCCCCCCCCC[N+](C)(C)CCCS(=O)(=O)[O-]` [Zwittergent 3-14], the “CMC % (w/v)” value was 0.011 % (w/v).
For Deoxycholate, the “CMC % (w/v)” value is listed as 0.21 % (w/v).
With LysoPC, the “CMC % (w/v)” value was 0.0004 % (w/v).
On to Nonidet P-40, for which the “CMC % (w/v)” value is reported as 0.017 % (w/v).
Triton X-100: the “CMC % (w/v)” value is reported as 0.021 % (w/v).
